According to EPA's ToxValDB 9.5:

Key:
[1] = tested on: Mus musculus
[2] = tested on: Mus musculus; details: uterotrophic; duration: 3 days; oral; Active
[3] = developmental, duration: 5 days, oral, F, Developmental: Delay in vaginal opening at 5 mg/kg and mammary gland growth stimulation a 5 mg/kg and inhibition at 10 mg/kg
[4] = developmental, duration: 7 days, oral, F, Kunming, Developmental: Increased resorbed embryos at 10 mg/kg/day in GD 13 group
[5] = developmental, duration: 17 days, oral, F, C57BL/6, Developmental: Developmental delays in the mammary glands on PNDs 21 (38%) and 61 (25%)
[6] = developmental, duration: 17 days, oral, F, CD1, Developmental: Increased ambulatory activity and decreased methamphetamineinduced activity
[7] = developmental, duration: 17 days, oral, F, Developmental: Decrease in number of successful births
[8] = developmental, duration: 17 days, oral, F, Hepatic: Centrilobular hepatocyte hypertrophy and bile duct hyperplasia at 3 mg/kg/day
[9] = reproduction developmental, duration: 17 days, oral, F, CD1, Hepatic: Increase in severity of chronic inflammation at ?1 mg/kg/day / Ito cell hypertrophy and centrilobular hepatocellular hypertrophy …
[10] = short-term, duration: 4 days, dermal, F, BALB/c, Hepatic: 52% increase in absolute liver weight
[11] = short-term, duration: 4 days, dermal, F, BALB/c, Immunotoxicological: Increased serum IgE following ovalbumin challenge
[12] = short-term, duration: 5 days, oral, F, BALB/c, Body Weight: 13% decrease in body weight gain
[13] = short-term, duration: 5 days, oral, F, Body Weight: 10% decrease in body weight gain
[14] = short-term, duration: 10 days, oral, F, Immunotoxicological: Altered response to sRBC

Q: Which LOAEL ([1]; developmental, duration: 5 days, oral, F, BALB/c, Developmental: Delay in vaginal opening at 1 mg/kg and mammary gland growth inhibition at 5 and 10 mg/kg) does the source give for `O=C(O)C(F)(F)C(F)(F)C(F)(F)C(F)(F)C(F)(F)C(F)(F)C(F)(F)F` [Perfluorooctanoic acid] here?
A: 1 mg/kg-day

Q: What about the LOAEL [1, 3] of the same compound?
A: 5 mg/kg-day

Q: What about the NOAEL [1, 3] of the same compound?
A: 1 mg/kg-day

Q: What about the LOAEL ([1]; developmental, duration: 5 days, oral, F, Developmental: Mammary gland growth stimulation) of the same compound?
A: 5 mg/kg-day

Q: What about the LOAEL [1, 4] of the same compound?
A: 10 mg/kg-day

Q: And the NOAEL [1, 4]?
A: 5 mg/kg-day

Q: And the LOAEL ([1]; developmental, duration: 15 days, oral, F, C57BL/6, Developmental: Increased horizontal and ambulatory locomotor activity and decreased resting time in males / decrease in novel object …)?
A: 0.1 mg/kg-day

Q: What about the LOAEL [1, 5] of the same compound?
A: 0.3 mg/kg-day

Q: What about the NOAEL [1, 5] of the same compound?
A: 0.1 mg/kg-day

Q: What about the LOAEL ([1]; developmental, duration: 17 days, oral, F, CD1, Developmental: Developmental delays in mammary gland development) of the same compound?
A: 0.01 mg/kg-day

Q: And the LOAEL ([1]; developmental, duration: 17 days, oral, F, CD1, Developmental: Developmental delays in the mammary glands on PNDs 35 (26%) and 56 (30%))?
A: 0.01 mg/kg-day

Q: And the LOAEL ([1]; developmental, duration: 17 days, oral, F, CD1, Developmental: Impaired development of mammary glands in offspring)?
A: 0.3 mg/kg-day

Q: And the LOAEL [1, 6]?
A: 1 mg/kg-day

Q: And the NOAEL [1, 6]?
A: 0.3 mg/kg-day

Q: What about the LOAEL ([1]; developmental, duration: 17 days, oral, F, Developmental: 31.5% reduced pups per litter on PND 20) of the same compound?
A: 3 mg/kg-day

Q: And the LOAEL [1, 7]?
A: 3 mg/kg-day

Q: And the NOAEL [1, 7]?
A: 0.1 mg/kg-day

Q: What about the NOAEL ([1]; developmental, duration: 17 days, oral, F, Hepatic: 28% increased liver weight, hepatocellular hypertrophy with increased peroxisomes) of the same compound?
A: 3 mg/kg-day

Q: And the LOAEL [1, 8]?
A: 3 mg/kg-day

Q: And the NOAEL [1, 8]?
A: 1 mg/kg-day

Q: What about the LOAEL ([1]; developmental, duration: 18 days, oral, F, ICR, Developmental: 14% increased neonatal mortality, 9.5% reduced fetal body weight) of the same compound?
A: 5 mg/kg-day

Q: What about the NOAEL ([1]; developmental, duration: 18 days, oral, F, ICR, Developmental: 14% increased neonatal mortality, 9.5% reduced fetal body weight + Hepatic: 35% increased maternal relative liver weight with…) of the same compound?
A: 1 mg/kg-day

Q: And the LOAEL ([1]; developmental, duration: 20 days, oral, diet, M/F, C57BL/6, developmental)?
A: 8.29 mg/L

Q: And the LOAEL ([1]; developmental, duration: 21 days, oral, F, C57BL/6, Developmental: Altered femur and tibial bone morphology, decreased tibial mineral density)?
A: 0.3 mg/kg-day

Q: And the LOAEL ([1]; developmental, duration: 21 days, oral, M/F, Developmental: Altered exploratory behavior in adult offspring (increased in males and decreased in females) / increased global activity in…)?
A: 0.3 mg/kg-day

Q: What about the LOAEL ([1]; reproduction developmental, duration: 7 days, oral, F, Kunming, Reproductive: Decreases in progesterone levels at ?5 mg/kg in GD 13 group / increased serum estradiol level at 10 mg/kg/day on GD 7 / …) of the same compound?
A: 2.5 mg/kg-day

Q: What about the LOAEL [1, 9] of the same compound?
A: 1 mg/kg-day

Q: What about the NOAEL [1, 9] of the same compound?
A: 0.3 mg/kg-day

Q: What about the NOAEL ([1]; reproduction developmental, duration: 17 days, oral, F, Hepatic: Increased severity of centrilobular hepatocyte hypertrophy at ?0.3 mg/kg/day) of the same compound?
A: 1 mg/kg-day

Q: What about the LOAEL ([1]; reproduction developmental, duration: 17 days, oral, M/F, CD1, Hepatic: Increased severity of hepatocellular hypertrophy at PND 91 and periportal inflammation on PND 21 at ?0.01 mg/kg/day (incidence was …) of the same compound?
A: 0.01 mg/kg-day

Q: And the LOAEL ([1]; reproduction developmental, duration: 18 days, oral, F, ICR, Hepatic: 35% increased maternal relative liver weight with hepatocellular hypertrophy at ?1 mg/kg/day / single cell necrosis and mild …)?
A: 10 mg/kg-day

Q: What about the LOAEL ([1]; short-term, duration: 3 weeks, oral, M, Hepatic: Hepatocellular hypertrophy and degeneration) of the same compound?
A: 5 mg/kg-day

Q: And the NOAEL ([1]; short-term, duration: 4 days, dermal, F, BALB/c)?
A: 50 mg/kg-day

Q: What about the LOAEL [1, 10] of the same compound?
A: 6.25 mg/kg-day

Q: And the NOAEL [1, 10]?
A: 2.5 mg/kg-day

Q: What about the LOAEL [1, 11] of the same compound?
A: 18.8 mg/kg-day

Q: What about the NOAEL [1, 11] of the same compound?
A: 12.5 mg/kg-day

Q: And the LOAEL [1, 12]?
A: 10 mg/kg-day

Q: And the NOAEL [1, 12]?
A: 5 mg/kg-day

Q: What about the NOAEL ([1]; short-term, duration: 5 days, oral, F, BALB/c, Hepatic: Increases in liver weight and hepatocellular hypertrophy at ?1 mg/kg) of the same compound?
A: 10 mg/kg-day

Q: What about the LOAEL [1, 13] of the same compound?
A: 10 mg/kg-day

Q: And the NOAEL [1, 13]?
A: 5 mg/kg-day

Q: What about the LOAEL ([1]; short-term, duration: 5 days, oral, F, C57BL/6, Reproductive: Increased progesterone levels) of the same compound?
A: 5 mg/kg-day

Q: And the NOAEL ([1]; short-term, duration: 5 days, oral, F, Hepatic: Increases in liver weight and hepatocellular hypertrophy at ?1 mg/kg)?
A: 10 mg/kg-day

Q: And the LOAEL ([1]; short-term, duration: 7 days, oral, F, BALB/c, Body Weight: 36% decrease in body weight gain + Immunotoxicological: Inhibition of T-and B-lymphocyte proliferation in response to sRBC / …)?
A: 20 mg/kg-day

Q: And the NOAEL ([1]; short-term, duration: 7 days, oral, F, BALB/c, Hepatic: 32% increase in relative liver weight)?
A: 20 mg/kg-day

Q: And the LOAEL ([1]; short-term, duration: 7 days, oral, M, Body Weight: 14% decreased mean body weight + Immunotoxicological: 40% reduction in spleen weight and 79% reduction in thymus weight)?
A: 33 mg/kg-day

Q: And the LOAEL ([1]; short-term, duration: 7 days, oral, M, Body Weight: >10% reduced final body weight)?
A: 24 mg/kg-day

Q: What about the NOAEL ([1]; short-term, duration: 7 days, oral, M, Hepatic: 2-fold increase in absolute liver weight) of the same compound?
A: 24 mg/kg-day

Q: What about the NOAEL ([1]; short-term, duration: 7 days, oral, M, Hepatic: 86% increase in absolute liver weight) of the same compound?
A: 33 mg/kg-day

Q: And the NOAEL ([1]; short-term, duration: 7 days, oral, M, Hepatic: Hepatocellular hypertrophy, steatosis, and increased hepatic triglyceride levels)?
A: 10 mg/kg-day

Q: What about the LOAEL ([1]; short-term, duration: 7 days, oral, M, Immunotoxicological: Decreased humoral response to immunization with horse red blood cells) of the same compound?
A: 24 mg/kg-day

Q: And the LOAEL [1, 14]?
A: 15 mg/kg-day

Q: And the NOAEL [1, 14]?
A: 7.5 mg/kg-day

Q: And the LOAEL ([1]; short-term, duration: 10 days, oral, M, Body Weight: 17% decrease in final body weight)?
A: 30 mg/kg-day

Q: And the LOAEL ([1]; short-term, duration: 10 days, oral, M, Body Weight: 25% body weight loss after 5 days of treatment)?
A: 78 mg/kg-day

Q: And the LOAEL ([1]; short-term, duration: 10 days, oral, M, Body Weight: 25% body weight loss after 10 days of treatment)?
A: 78 mg/kg-day

Q: And the NOAEL ([1]; short-term, duration: 10 days, oral, M, C57BL/6, Hepatic: 68% increase in liver weight, hepatocellular hypertrophy, and decreased serum cholesterol levels)?
A: 2 mg/kg-day

Q: And the NOAEL ([1]; short-term, duration: 10 days, oral, M, Hepatic: 35% increase in absolute liver weight at ?1 mg/kg/day)?
A: 1 mg/kg-day

Q: And the NOAEL ([1]; short-term, duration: 10 days, oral, M, Hepatic: 74% increase in absolute liver weight at ?78 mg/kg/day)?
A: 390 mg/kg-day

Q: What about the NOAEL ([1]; short-term, duration: 10 days, oral, M, Hepatic: 74% increase in absolute liver weight in 5 days at ?78 mg/kg/day) of the same compound?
A: 390 mg/kg-day

Q: And the NOAEL ([1]; short-term, duration: 10 days, oral, M, Hepatic: >90% increase in absolute and relative liver weight)?
A: 30 mg/kg-day

Q: What about the LOAEL ([1]; short-term, duration: 10 days, oral, M, Immunotoxicological: 40-50% decrease in spleen and thymus weights) of the same compound?
A: 11.5 mg/kg-day

Q: What about the LOAEL ([1]; short-term, duration: 10 days, oral, M, Immunotoxicological: 86% reduction in absolute thymus weight / 30% reduction in absolute spleen weight) of the same compound?
A: 30 mg/kg-day

Q: And the NOAEL ([1]; short-term, duration: 15 days, oral, F)?
A: 7.5 mg/kg-day

Q: What about the LOAEL ([1]; short-term, duration: 15 days, oral, F, Body Weight: 14-20% decrease in body weight in wild-type mice) of the same compound?
A: 30 mg/kg-day

Q: What about the LOAEL ([1]; short-term, duration: 21 days, oral, M, ICR, Immunotoxicological: Marked hyperplasia in spleen white pulp and thymic atrophy) of the same compound?
A: 47.2 mg/kg-day

Q: What about the NOAEL ([1]; subchronic, duration: 6 weeks, oral, M/F, BALB/c, Hepatic: 54-65% increase in relative liver weight / 20% increase in plasma cholesterol in males) of the same compound?
A: 0.55 mg/kg-day

Q: And the NOAEL ([1]; subchronic, duration: 6 weeks, oral, M/F, C57BL/6, Hepatic: 66-67% increase in relative liver weight in males / increased plasma cholesterol levels in males (35%) and females (70%))?
A: 0.55 mg/kg-day

Q: And the LEL [2]?
A: 0.01 mg/kg-day
